The results in this text go back to patent US11149031B2, “Substituted N-(3-fluoropropyl)-pyrrolidine compounds, processes for their preparation and therapeutic uses thereof” (SANOFI, priority 2016, dated 2021).

The target of assay [1] is His6-ERα298-554 D538G mutant (ERα ligand-binding domain) (Homo sapiens (Human), UniProt P03372, D538G). Put plainly: Test A: biochemical antagonist activity, LanthaScreen TR-FRET ERα coactivator assay, D538G mutant. The following applies: asterisk (*): protocol using 10 nM estradiol; read-out: Antagonism D538G IC50. The method in brief:
(§1)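 His6-ERα LBD (aa 298–554), 0.5 nM, with Tb-anti-His6 antibody, 250 nM PGC1a peptide and 3 nM (or 10 nM) estradiol in pH 7.4 potassium phosphate/DTT buffer; incubated with compound overnight at room temperature. IC50 from 4-parameter logistic fit of TR-FRET 520:495 nm ratio.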
Background: TR-FRET usually uses a lanthanide donor and a delayed reading to cut background.

The test system of assay [2] is MCF7 cells expressing mutant estrogen receptor Asp 538 Gly. The assay is described as follows: Test B: cell proliferation/viability assay (CellTiter-Glo) on MCF7 Asp 538 Gly mutant. It is filed as cell-based. The settings on record: Homo sapiens, MCF7, 168 h, MCF7 cells expressing ER Asp 538 Gly mutant, 7 days of compound exposure, read-out: proliferation MCF7 D538G IC50. In outline: (§2)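 Mutant lines are MCF7 transfected with ER mutants and selected for estradiol-independent growth. Cells in phenol red-free MEM with 5% charcoal-stripped FBS received 9-point 1:5 dilutions (3-0.000001 μM) for 7 days; CellTiter-Glo luminescence, % viability relative to untreated after background subtraction.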
In general terms: ATP-based viability assays read luminescence as a measure of living cells.

The test system of assay [3] is MCF7 cells (breast tumor cells) WT. Put plainly: Test B: cell proliferation/viability assay (CellTiter-Glo) on MCF7 WT. It is filed as cell-based. The settings on record: Homo sapiens, MCF7, 168 h, 7 days of compound exposure. The method in brief: as §2
The target in assay [4] is His6-ERα298-554 WT (ERα ligand-binding domain) (Homo sapiens (Human), UniProt P03372). The assay is described as follows: Test A: biochemical antagonist activity, LanthaScreen TR-FRET ERα coactivator assay, WT. The following applies: asterisk (*): protocol using 10 nM estradiol; read-out: Antagonism WT IC50. The method in brief: as §1
Chain of His6-ERα298-554 WT (ERα ligand-binding domain) (P03372 298-554): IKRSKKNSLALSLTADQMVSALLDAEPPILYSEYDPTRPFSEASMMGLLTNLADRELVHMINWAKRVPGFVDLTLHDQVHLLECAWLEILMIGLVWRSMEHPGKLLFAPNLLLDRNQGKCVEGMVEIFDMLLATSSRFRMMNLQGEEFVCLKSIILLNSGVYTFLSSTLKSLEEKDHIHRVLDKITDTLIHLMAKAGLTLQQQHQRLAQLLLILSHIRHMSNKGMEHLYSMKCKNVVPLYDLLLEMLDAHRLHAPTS
Assay [5] has as its system MCF7 cells expressing mutant estrogen receptor Tyr 537 Ser. The assay is described as follows: Test B: cell proliferation/viability assay (CellTiter-Glo) on MCF7 Tyr 537 Ser mutant. It is filed as cell-based. The settings on record: Homo sapiens, MCF7, 168 h, MCF7 cells expressing ER Tyr 537 Ser mutant, 7 days of compound exposure, read-out: proliferation MCF7 Y537S IC50. The method in brief: as §2

The target of another assay is ERα in MCF7 cells (Homo sapiens (Human), UniProt P03372). The assay is described as follows: Test C: estrogen receptor degradation activity, ERα in cell western assay in MCF7 cells. The format is cell-based. The following applies: for DC50: 4 hours post compound addition, ERα in cell western, read-out: Degradation IC50; for % Degradation at 3 μM: 4 hours, relative to fulvestrant. In outline: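 MCF7 cells in phenol-red-free medium with 5% charcoal-stripped FBS received compound (9-point 1:5, 3-0.000018 μM) for 4 h, then were fixed. ERα immunostained (Alexa 488) and normalised to DNA (Syto-64), read as integrated fluorescence on an Acumen scanner.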
Chain of ERα in MCF7 cells (P03372 whole entry): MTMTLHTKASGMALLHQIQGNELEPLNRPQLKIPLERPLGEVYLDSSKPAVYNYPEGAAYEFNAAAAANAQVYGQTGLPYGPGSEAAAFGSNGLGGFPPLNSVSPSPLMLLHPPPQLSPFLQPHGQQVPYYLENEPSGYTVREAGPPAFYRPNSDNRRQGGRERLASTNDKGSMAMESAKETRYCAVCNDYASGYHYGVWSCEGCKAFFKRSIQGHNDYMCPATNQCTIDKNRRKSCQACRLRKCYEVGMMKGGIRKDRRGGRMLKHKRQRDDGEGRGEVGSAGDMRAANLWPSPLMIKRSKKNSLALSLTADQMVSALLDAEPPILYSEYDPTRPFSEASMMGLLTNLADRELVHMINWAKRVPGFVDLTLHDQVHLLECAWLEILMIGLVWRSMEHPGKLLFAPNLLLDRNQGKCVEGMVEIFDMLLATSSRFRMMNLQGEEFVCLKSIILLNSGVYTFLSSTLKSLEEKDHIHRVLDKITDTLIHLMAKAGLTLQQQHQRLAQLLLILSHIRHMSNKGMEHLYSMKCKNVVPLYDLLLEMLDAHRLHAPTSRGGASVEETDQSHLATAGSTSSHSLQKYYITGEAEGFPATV

The target of assay [6] is His6-ERα298-554 Y537S mutant (ERα ligand-binding domain) (Homo sapiens (Human), UniProt P03372, Y537S). The assay is described as follows: Test A: biochemical antagonist activity, LanthaScreen TR-FRET ERα coactivator assay, Y537S mutant. The following applies: asterisk (*): protocol using 10 nM estradiol; read-out: Antagonism Y537S IC50. The method in brief: as §1
Chain of His6-ERα298-554 Y537S mutant (ERα ligand-binding domain) (P03372 298-554 Y537S): as the sequence (P03372 298-554) above, with Y240S counted along it

Chain of His6-ERα298-554 D538G mutant (ERα ligand-binding domain) (P03372 298-554 D538G): as the sequence (P03372 298-554) above, with D241G counted along it

Take `Oc1ccc2c(c1)SCCC(c1ccc(OC(F)(F)F)cc1)=C2c1ccc(O[C@H]2CCN(CCCF)C2)cc1` [Example 214, 5-[4-[(3S)-1-(3-fluoropropyl)pyrrolidin-3-yl]oxyphenyl]-4-[4-(trifluoromethoxy)phenyl]-2,3-dihydro-1-benzothiepin-8-ol]: the IC50 in assay [1] is 539 nM; in assay [2], 0.7 nM; in assay [3] it was 0.4 nM; in assay [4] it was 38 nM; in assay [5], 6 nM; in assay [6] it was 457 nM. Further, on ERα in MCF7 cells, the DC50 came out at 1 nM. The “% Degradation at 3 μM” value at ERα in MCF7 cells is given as 82%.
Regarding `Oc1ccc2c(c1)SCCC(c1ccc(F)nc1F)=C2c1ccc(O[C@H]2CCN(CCCF)C2)cc1` [Example 215, 4-(2,6-difluoro-3-pyridyl)-5-[4-[(3S)-1-(3-fluoropropyl)pyrrolidin-3-yl]oxyphenyl]-2,3-dihydro-1-benzothiepin-8-ol], the IC50 in assay [1] turned out to be 190 nM; in assay [2], 0.2 nM; in assay [3] it was 0.1 nM; in assay [4], 8 nM; in assay [5], 3 nM; in assay [6] it was 86 nM. For the same molecule, at ERα in MCF7 cells, the DC50 was 0.2 nM. The “% Degradation at 3 μM” value on ERα in MCF7 cells is recorded as 93%.
Turning to `CC(C)(C)c1ccc(C2=C(c3ccc(O[C@H]4CCN(CCCF)C4)cc3)c3ccc(O)cc3SCC2)cc1` [Example 216, 4-(4-tert-butylphenyl)-5-[4-[(3S)-1-(3-fluoropropyl)pyrrolidin-3-yl]oxyphenyl]-2,3-dihydro-1-benzothiepin-8-ol], the IC50 was 662 nM in assay [1]; 1 nM in assay [2]; 0.6 nM in assay [3]; 33 nM in assay [4]; 13 nM in assay [5]; 543 nM in assay [6]. In addition, the DC50 on ERα in MCF7 cells was determined as 0.2 nM. Moreover, the “% Degradation at 3 μM” value on ERα in MCF7 cells stood at 88%.
For `CCOc1ccc(C2=C(c3ccc(O[C@H]4CCN(CCCF)C4)cc3)c3ccc(O)cc3SCC2)c(F)c1F` [Example 217, 4-(4-ethoxy-2,3-difluoro-phenyl)-5-[4-[(3S)-1-(3-fluoropropyl)pyrrolidin-3-yl]oxyphenyl]-2,3-dihydro-1-benzothiepin-8-ol], the IC50 was determined as 61 nM in assay [1]; 0.6 nM in assay [2]; 0.1 nM in assay [3]; 4 nM in assay [4]; 5 nM in assay [5]; 39 nM in assay [6]. Besides, the DC50 on ERα in MCF7 cells came out at 0.2 nM. Moreover, the “% Degradation at 3 μM” value at ERα in MCF7 cells was 87%.
For `Oc1ccc2c(c1)SCCC(c1ccc(OCF)cc1)=C2c1ccc(O[C@H]2CCN(CCCF)C2)cc1` [Example 218, 4-[4-(fluoromethoxy)phenyl]-5-[4-[(3S)-1-(3-fluoropropyl)pyrrolidin-3-yl]oxyphenyl]-2,3-dihydro-1-benzothiepin-8-ol], the IC50 in assay [1] came out at 25 nM; in assay [2], 0.1 nM; in assay [3], 0.1 nM; in assay [4] it was 1 nM; in assay [5], 1 nM; in assay [6] it was 22 nM. The DC50 at ERα in MCF7 cells worked out at 0.2 nM. On ERα in MCF7 cells, the “% Degradation at 3 μM” value is 78%.
Regarding `Cc1noc(C)c1C1=C(c2ccc(O[C@H]3CCN(CCCF)C3)cc2)c2ccc(O)cc2SCC1` [Example 219, 4-(3,5-dimethylisoxazol-4-yl)-5-[4-[(3S)-1-(3-fluoropropyl)pyrrolidin-3-yl]oxyphenyl]-2,3-dihydro-1-benzothiepin-8-ol], the IC50 in assay [1] was 233 nM; in assay [2], 0.4 nM; in assay [3] it was 0.1 nM; in assay [4], 12 nM; in assay [5] it was 2 nM; in assay [6], 149 nM. The DC50 on ERα in MCF7 cells came out at 0.2 nM. Moreover, the “% Degradation at 3 μM” value on ERα in MCF7 cells was 90%.
In the case of `CCOc1cc(F)c(C2=C(c3ccc(O[C@H]4CCN(CCCF)C4)cc3)c3ccc(O)cc3SCC2)cc1F` [Example 220, 4-(4-ethoxy-2,5-difluoro-phenyl)-5-[4-[(3S)-1-(3-fluoropropyl)pyrrolidin-3-yl]oxyphenyl]-2,3-dihydro-1-benzothiepin-8-ol], the IC50 in assay [1] was found to be 164 nM; in assay [2] it was 0.5 nM; in assay [3] it was 0.4 nM; in assay [4], 8 nM; in assay [5], 5 nM; in assay [6], 84 nM. For the same molecule, at ERα in MCF7 cells, the DC50 was 0.2 nM. Moreover, the “% Degradation at 3 μM” value at ERα in MCF7 cells came to 89%.
Take `CCOc1ccc(C2=C(c3ccc(O[C@H]4CCN(CCCF)C4)cc3)c3ccc(O)cc3SCC2)c(F)c1Cl` [Example 221, 4-(3-chloro-4-ethoxy-2-fluoro-phenyl)-5-[4-[(3S)-1-(3-fluoropropyl)pyrrolidin-3-yl]oxyphenyl]-2,3-dihydro-1-benzothiepin-8-ol]: the IC50 in assay [1] was determined as 265 nM; in assay [2], 0.6 nM; in assay [3], 0.5 nM; in assay [4], 11 nM; in assay [5], 8 nM; in assay [6], 133 nM. The DC50 at ERα in MCF7 cells came out at 0.2 nM. Also, the “% Degradation at 3 μM” value at ERα in MCF7 cells came out at 84%.
As to `Oc1ccc2c(c1)SCCC(c1ccc(SC(F)(F)F)cc1)=C2c1ccc(O[C@H]2CCN(CCCF)C2)cc1` [Example 222, 5-[4-[(3S)-1-(3-fluoropropyl)pyrrolidin-3-yl]oxyphenyl]-4-[4-(trifluoromethylsulfanyl)phenyl]-2,3-dihydro-1-benzothiepin-8-ol], the IC50 came to 371 nM in assay [1]; 0.4 nM in assay [2]; 4 nM in assay [3]; 18 nM in assay [4]; 1 nM in assay [5]; 238 nM in assay [6]. Also, the DC50 at ERα in MCF7 cells was 1 nM. Besides, at ERα in MCF7 cells, the “% Degradation at 3 μM” value is on record as 80%.
Take `Nc1ccc(C2=C(c3ccc(O[C@H]4CCN(CCCF)C4)cc3)c3ccc(O)cc3SCC2)c(F)n1` [Example 223, 4-(6-amino-2-fluoro-3-pyridyl)-5-[4-[(3S)-1-(3-fluoropropyl)pyrrolidin-3-yl]oxyphenyl]-2,3-dihydro-1-benzothiepin-8-ol]: the IC50 was 42 nM in assay [1]; 0.2 nM in assay [2]; 1 nM in assay [3]; 2 nM in assay [4]; 0.1 nM in assay [5]; 24 nM in assay [6]. On ERα in MCF7 cells, the DC50 was determined as 0.2 nM. Moreover, the “% Degradation at 3 μM” value at ERα in MCF7 cells was determined as 85%.
Regarding `CCN(CC)c1ccc(C2=C(c3ccc(O[C@H]4CCN(CCCF)C4)cc3)c3ccc(O)cc3SCC2)c(F)c1` [Example 224, 4-[4-(diethylamino)-2-fluoro-phenyl]-5-[4-[(3S)-1-(3-fluoropropyl)pyrrolidin-3-yl]oxyphenyl]-2,3-dihydro-1-benzothiepin-8-ol], the IC50 in assay [1] came to 1480 nM; in assay [2], 8 nM; in assay [3], 3 nM; in assay [4], 71 nM; in assay [5], 83 nM; in assay [6] it was 1030 nM. Besides, the DC50 on ERα in MCF7 cells stood at 3 nM. Besides, the “% Degradation at 3 μM” value at ERα in MCF7 cells amounted to 85%.
Regarding `[O-][S+]1CCC(c2ccc(OC(F)(F)F)cc2)=C(c2ccc(O[C@H]3CCN(CCCF)C3)cc2)c2ccc(O)cc21` (stereo partly drawn) [Example 225, 5-[4-[(3S)-1-(3-fluoropropyl)pyrrolidin-3-yl]oxyphenyl]-1-oxo-4-[4-(trifluoromethoxy)phenyl]-2,3-dihydro-benzothiepin-8-ol], the IC50 in assay [1] was over 4000 nM; in assay [2], 36 nM; in assay [3] it was 18 nM; in assay [4] it was 750 nM; in assay [5] it was 249 nM; in assay [6], over 4000 nM. Further, the DC50 on ERα in MCF7 cells was determined as 6 nM. In addition, on ERα in MCF7 cells, the “% Degradation at 3 μM” value is 82%.
Regarding `Cc1ccc(C2=C(c3ccc(O[C@H]4CCN(CCCF)C4)nc3)c3ccc(O)cc3CCC2)c(F)c1` [Example 237, 6-(2-fluoro-4-methyl-phenyl)-5-[6-[(3S)-1-(3-fluoropropyl)pyrrolidin-3-yl]oxy-3-pyridyl]-8,9-dihydro-7H-benzo[7]annulen-2-ol], the IC50 was 7 nM in assay [1]; 0.7 nM in assay [2]; 0.3 nM in assay [3]; 0.6 nM in assay [4]; 5 nM in assay [5]; 5 nM in assay [6]. For the same molecule, at ERα in MCF7 cells, the DC50 came to 0.2 nM. The “% Degradation at 3 μM” value at ERα in MCF7 cells was 92%.
